# Read-outs that look alike come from different tables or passages of the source.
# Key:
# [1] = Material characterization by TGA and dynamic vapor sorption (DVS); assay type: physicochemical; details: crystalline compound
# [2] = Phase 1 study, multiple oral dose (twice a day for 10 days) pharmacokinetics in healthy subjects; assay type: in vivo, human; details: fasted state; for half-life: po
# Experimental: The second part of this study aims to obtain safety, tolerability and pharmacokinetic data when the compound of formula I is administered orally dosed twice a day for 10 days in healthy subjects using the above drug layered formulation.
# Experimental Data from Healthy Subject Cohort B1: 50 mg Compound of Formula I (API)
# 8 healthy subjects received 50 mg of compound of formula I capsules and 3 subjects receive placebo orally twice a day for 10 days. Blood samples for pharmacokinetic analysis of plasma API concentrations were obtained by venipuncture before dosing on day 1, and then at 0.5, 1, 1.5, 2, 3, 4, 6, 8, 12, 16, 24, 36, and 48 hours post dose. Blood sampling was repeated on day 10.
# Experimental Data from Healthy Subject Cohort B2: 100 mg Compound of Formula I
# 8 healthy subjects received 100 mg of compound of formula I capsules and 3 subjects receive placebo orally twice a day for 10 days. Blood samples for pharmacokinetic analysis of plasma API concentrations were obtained by venipuncture before dosing on day 1, and then at 0.5, 1, 1.5, 2, 3, 4, 6, 8, 12, 16, 24 hours post dose. Blood sampling was repeated at day 10.
# [3] = Dissolution of filled capsules / pellets in biorelevant media (FaSSIF); assay type: physicochemical; details: 18 hours
# Experimental: As an alternative to poloxamer 188, the surfactant SLS was also evaluated to aid in the dispersion of the SDD.
# The resulting drug layered pellets were analysed by UV-HPLC to determine the drug loading as well as by SEM, XRPD and Dissolution in biorelevant media.
# The dissolution profile of the drug-layered pellets was compared to the dissolution profiles of the API alone as well an ASD formulation (physical mixture of SDD (API:HPMC603=1:2) and poloxamer 188) (see FIG. 4).
# [4] = Phase 1 first-in-human study, single oral dose pharmacokinetics in healthy subjects (drug layered formulation capsules); assay type: in vivo; details: plasma; for half-life / AUC(0-t) / Tmax / AUC(0-inf): human; for half-life / AUC(0-t) / Tmax: po; for half-life / AUC(0-t) / AUC(0-inf): geometric mean; for AUC(0-t): read-out: AUC0-24; for Tmax / Tlog: median
# Experimental: The first part of this study aims to obtain safety, tolerability and pharmacokinetic data when the compound of formula I is administered orally as a single dose in healthy subjects using the above drug layered formulation.
# Experimental Data from Healthy Subject Cohort A1: 5 mg Compound of Formula I (API)
# 6 healthy subjects received 5 mg of compound of formula I capsules orally as a single dose in the fasted state, and 2 subjects receive placebo. The first 2 subjects (1 active and 1 placebo) were dosed 24 hours before the remaining subjects. Blood samples for pharmacokinetic analysis of plasma API concentrations were obtained by venipuncture before dosing, and then at 0.5, 1, 1.5, 2, 3, 4, 6, 8, 12, 16, 24, 36, and 48 hours post dose. […]
# Experimental Data from Healthy Subject Cohort A3 Fasted: 50 mg Compound of Formula I (API)
# 6 healthy subjects received 50 mg of compound of formula I capsules orally as a single dose in the fasted state, and 2 subjects receive placebo. The first 2 subjects (1 active and 1 placebo) were dosed 24 hours before the remaining subjects. Blood samples for pharmacokinetic analysis of plasma API concentrations were obtained by venipuncture before dosing, and then at 0.5, 1, 1.5, 2, 3, 4, 6, 8, 12, 16, 24, 36, and 48 hours post dose.
# Experimental Data from Healthy Subject Cohort A3 Fed: 50 mg Compound of Formula I (API)
# 6 healthy subjects received 50 mg of compound of formula I capsules orally as a single dose in the fed state, and 2 subjects receive placebo. The first 2 subjects (1 active and 1 placebo) were dosed 24 hours before the remaining subjects. Blood samples for pharmacokinetic analysis of plasma API concentrations were obtained by venipuncture before dosing, and then at 0.5, 1, 1.5, 2, 3, 4, 6, 8, 12, 16, 24, 36, and 48 hours post dose. […]
# Experimental Data from Healthy Subject Cohort A5: 100 mg Compound of Formula I (API)
# 6 healthy subjects received 100 mg of compound of formula I capsules orally as a single dose in the fasted state, and 2 subjects receive placebo. The first 2 subjects (1 active and 1 placebo) were dosed 24 hours before the remaining subjects. Blood samples for pharmacokinetic analysis of plasma API concentrations were obtained by venipuncture before dosing, and then at 0.5, 1, 1.5, 2, 3, 4, 6, 8, 12, 16, 24, 36, and 48 hours post dose.
# Experimental Data from Healthy Subject Cohort A6: 200 mg Compound of Formula I (API)
# 6 healthy subjects received 200 mg of compound of formula I capsules orally as a single dose in the fasted state, and 2 subjects receive placebo. The first 2 subjects (1 active and 1 placebo) were dosed 24 hours before the remaining subjects. Blood samples for pharmacokinetic analysis of plasma API concentrations were obtained by venipuncture before dosing, and then at 0.5, 1, 1.5, 2, 3, 4, 6, 8, 12, 16, 24, 36, and 48 hours post dose.
# Experimental Data from Healthy Subject Cohort A7: 400 mg Compound of Formula I (API)
# 6 healthy subjects received 400 mg of compound of formula I capsules orally as a single dose in the fasted state, and 2 subjects receive placebo. The first 2 subjects (1 active and 1 placebo) were dosed 24 hours before the remaining subjects. Blood samples for pharmacokinetic analysis of plasma API concentrations were obtained by venipuncture before dosing, and then at 0.5, 1, 1.5, 2, 3, 4, 6, 8, 12, 16, 24, 36, and 48 hours post dose.
# [5] = Solubility of the crystalline compound (statement); assay type: physicochemical; details: highly crystalline compound
# [6] = First in human study, safety and tolerability, single and multiple ascending doses; assay type: in vivo; details: oral
# Experimental: The compound of formula I is tested in a Phase 1, randomized, double-blind, placebo-controlled, first-in-human study in which the safety, tolerability, and pharmacokinetics of orally administered compound of formula I is evaluated in healthy adult subjects and adult subjects with indication of suspected Nonalcoholic steatohepatitis (NASH) and liver fibrosis.
# This study aims to obtain safety, tolerability and pharmacokinetic data when the compound of formula I is administered orally as single doses and as multiple doses to healthy subjects. In addition, an optional part has been included to obtain safety and tolerability data when the compound of formula I is administered orally as multiple doses to subjects with suspected Nonalcoholic steatohepatitis (NASH) and liver fibrosis.
# [7] = 50 mg BID oral, Day 10, healthy subjects, geometric mean
# [8] = 100 mg BID oral, Day 10, healthy subjects, geometric mean
# [9] = 5 mg, single oral dose 5 mg, fasted state
# [10] = 20 mg, single oral dose 20 mg, fasted state
# [11] = 50 mg, single oral dose 50 mg (1 × 50 mg), fasted state
# [12] = 50 mg, single oral dose 50 mg (1 × 50 mg), fed state
# [13] = 100 mg, single oral dose 100 mg, fasted state
# [14] = 200 mg, single oral dose 200 mg, fasted state
# [15] = 400 mg, single oral dose 400 mg, fasted state
# [16] = single oral dose 100 mg, fasted state
# [17] = single oral dose 200 mg, fasted state
# [18] = single oral dose 400 mg, fasted state
structure (smiles),measurement,setting,value
"OC[C@H]1O[C@H](Sc2cncc(Br)c2)[C@H](O)[C@@H](n2cc(-c3cc(F)c(F)c(F)c3)nn2)[C@H]1O [GB1211, 5-Bromopyridin-3-yl 3-deoxy-3-[4-(3,4,5-trifluorophenyl)-1H-1,2,3-triazol-1-yl]-1-thio-α-D-galactopyranoside]",hydrate formation,[1]; DVS,no indication of hydrate formation
same,hygroscopicity,[1]; dynamic vapor sorption (DVS),not hygroscopic
same,Cmin,[2]; [7],249 ng/mL
same,RAAUC,[2]; [7],2.31
same,Cmin,[2]; [8],338 ng/mL
same,RAAUC,[2]; [8],2.11
same,half-life,"[2]; human, plasma, 50 mg, 50 mg BID oral, Day 1, geometric mean, unreliable due to short sampling duration 0-12 hours, exploratory",440 min
same,half-life,"[2]; human, plasma, 50 mg, 50 mg BID oral, Day 10, healthy subjects, geometric mean",1210 min
same,half-life,"[2]; human, plasma, 100 mg, 100 mg BID oral, Day 1, geometric mean, unreliable due to short sampling duration 0-12 hours, exploratory",422 min
same,half-life,"[2]; human, plasma, 100 mg, 100 mg BID oral, Day 10, healthy subjects, geometric mean",750 min
same,Cmax,"[2]; human, plasma, 50 mg BID oral, Day 1, healthy subjects, geometric mean",330 ng/mL
same,API released in the dissolution media,[3]; FaSSIF,less than 12%
same,API concentration in FaSSIF,[3]; dissolution,0.011 mg/mL
same,half-life,[4]; [9],672 min
same,AUC(0-t),[4]; [9],585 ng·h/mL
same,Tmax,[4]; [9],2 h
same,half-life,[4]; [10],744 min
same,AUC(0-t),[4]; [10],2670 ng·h/mL
same,half-life,[4]; [11],756 min
same,AUC(0-t),[4]; [11],3400 ng·h/mL
same,Tmax,[4]; [11],3 h
same,half-life,[4]; [12],768 min
same,AUC(0-t),[4]; [12],3820 ng·h/mL
same,Tmax,[4]; [12],5 h
same,AUC(0-t),"[4]; 50 mg, single oral dose 50 mg (10 × 5 mg), fasted state",5770 ng·h/mL
same,half-life,[4]; [13],726 min
same,AUC(0-t),[4]; [13],4900 ng·h/mL
same,Tmax,[4]; [13],3.5 h
same,half-life,[4]; [14],906 min
same,AUC(0-t),[4]; [14],9050 ng·h/mL
same,Tmax,[4]; [14],3.5 h
same,half-life,[4]; [15],870 min
same,AUC(0-t),[4]; [15],15100 ng·h/mL
same,Tmax,[4]; [15],4 h
same,AUC(0-inf),[4]; [16],6360 ng·h/mL
same,AUC(0-inf),[4]; [17],13100 ng·h/mL
same,AUC(0-inf),[4]; [18],21500 ng·h/mL
same,Tlog,"[4]; single oral dose 5 mg, fasted state",0.00 h
same,Tlog,"[4]; single oral dose 20 mg, fasted state",0.00 h
same,Tlog,"[4]; single oral dose 50 mg (1 × 50 mg), fasted state",0.00 h
same,Tlog,"[4]; single oral dose 50 mg (1 × 50 mg), fed state",0.75 h
same,Tlog,"[4]; single oral dose 50 mg (10 × 5 mg), fasted state",0.00 h
same,Tlog,[4]; [16],0.00 h
same,Tlog,[4]; [17],0.00 h
same,Tlog,[4]; [18],0.00 h
same,solubility,[5],relatively low solubility
same,safety and tolerability in man,[6],safe and well tolerated
